Test results as given in ChEMBL document CHEMBL4602639, “A novel series of 11-O-carbamoyl-3-O-descladinosyl clarithromycin derivatives bearing 1,2,3-triazole group: Design, synthesis and antibacterial evaluation” (2020).
In brackets after ≈: the same amount, converted by molar mass.

Experiments:
Format in all cases: functional
Bacillus subtilis = experiment: Antibacterial activity against penicillin-susceptible Bacillus subtilis ATCC 9372 by standard broth microdilution method
Staphylococcus aureus [1] = experiment: Antibacterial activity against methicillin-resistant Staphylococcus aureus ATCC 43300 by standard broth microdilution method
Streptococcus pneumoniae [2] = experiment: Antibacterial activity against erythromycin-resistant Streptococcus pneumoniae AB11 expressing ermB and me/A genes by standard broth microdilution method
Streptococcus pyogenes = experiment: Antibacterial activity against erythromycin resistant Streptococcus pyogenes R1 by standard broth microdilution method
Escherichia coli = experiment: Antibacterial activity against penicillin-susceptible Escherichia coli ATCC 25922 by standard broth microdilution method
Pseudomonas aeruginosa = experiment: Antibacterial activity against penicillin-susceptible Pseudomonas aeruginosa ATCC 27853 by standard broth microdilution method
Streptococcus pneumoniae [3] = experiment: Antibacterial activity against erythromycin-resistant Streptococcus pneumoniae B1 expressing ermB gene by standard broth microdilution method
Staphylococcus aureus [4] = experiment: Antibacterial activity against erythromycin-susceptible Staphylococcus aureus ATCC 25923 by standard broth microdilution method

Row | SMILES | MIC (Bacillus subtilis) [µg/mL] | MIC (Staphylococcus aureus [1]) [µg/mL] | MIC (Streptococcus pneumoniae [2]) [µg/mL] | MIC (Streptococcus pyogenes) [µg/mL] | MIC (Escherichia coli) [µg/mL] | MIC (Pseudomonas aeruginosa) [µg/mL] | MIC (Streptococcus pneumoniae [3]) [µg/mL] | MIC (Staphylococcus aureus [4]) [µg/mL]
1 | CC[C@H]1OC(=O)[C@H](C)C(=O)[C@H](C)[C@@H](O[C@H]2O[C@@H](C)C[C@@H](N(C)C)[C@@H]2O)[C@](C)(OC)C[C@@H](C)C(=O)[C@H](C)[C@@H](OC(=O)NCCn2cc(-c3cccc(C)c3)nn2)[C@]1(C)O | 8 (≈ 9.8 µM) | > 256 | 256 (≈ 314 µM) | 256 (≈ 314 µM) | > 128 | 128 (≈ 157 µM) | > 256 | 32 (≈ 39.2 µM)
2 | CCCc1ccc(-c2cn(CCNC(=O)O[C@@H]3[C@@H](C)C(=O)[C@H](C)C[C@@](C)(OC)[C@H](O[C@H]4O[C@@H](C)C[C@@H](N(C)C)[C@@H]4O)[C@@H](C)C(=O)[C@@H](C)C(=O)O[C@H](CC)[C@@]3(C)O)nn2)cc1 | 8 (≈ 9.48 µM) | 256 (≈ 303 µM) | 128 (≈ 152 µM) | 64 (≈ 75.8 µM) | > 128 | 128 (≈ 152 µM) | 256 (≈ 303 µM) | 32 (≈ 37.9 µM)
3 | CC[C@H]1OC(=O)[C@H](C)C(=O)[C@H](C)[C@@H](O[C@H]2O[C@@H](C)C[C@@H](N(C)C)[C@@H]2O)[C@](C)(OC)C[C@@H](C)C(=O)[C@H](C)[C@@H](OC(=O)NCCn2cc(-c3ccccc3)nn2)[C@]1(C)O | 8 (≈ 9.98 µM) | > 256 | 256 (≈ 319 µM) | 256 (≈ 319 µM) | > 128 | 128 (≈ 160 µM) | 256 (≈ 319 µM) | 32 (≈ 39.9 µM)
4 | CC[C@H]1OC(=O)[C@H](C)C(=O)[C@H](C)[C@@H](O[C@H]2O[C@@H](C)C[C@@H](N(C)C)[C@@H]2O)[C@](C)(OC)C[C@@H](C)C(=O)[C@H](C)[C@@H](OC(=O)NCCn2cc(-c3ccc(OC)cc3)nn2)[C@]1(C)O | 4 (≈ 4.81 µM) | > 256 | 256 (≈ 308 µM) | 256 (≈ 308 µM) | > 128 | 128 (≈ 154 µM) | > 256 | 16 (≈ 19.2 µM)
5 | CC[C@H]1OC(=O)[C@H](C)C(=O)[C@H](C)[C@@H](O[C@H]2O[C@@H](C)C[C@@H](N(C)C)[C@@H]2O)[C@](C)(OC)C[C@@H](C)C(=O)[C@H](C)[C@@H](OC(=O)NCCCn2cc(-c3ccccc3)nn2)[C@]1(C)O | 8 (≈ 9.8 µM) | 256 (≈ 314 µM) | 64 (≈ 78.4 µM) | 64 (≈ 78.4 µM) | > 128 | 128 (≈ 157 µM) | 128 (≈ 157 µM) | 8 (≈ 9.8 µM)
6 | CC[C@H]1OC(=O)[C@H](C)[C@@H](O[C@H]2C[C@@](C)(OC)[C@@H](O)[C@H](C)O2)[C@H](C)[C@@H](O[C@@H]2O[C@H](C)C[C@H](N(C)C)[C@H]2O)[C@](C)(O)C[C@@H](C)CN(C)[C@H](C)[C@@H](O)[C@]1(C)O [AZITHROMYCIN] | 0.25 (≈ 0.334 µM) | > 256 | 256 (≈ 342 µM) | 256 (≈ 342 µM) | > 128 | 4 (≈ 5.34 µM) | > 256 | 0.25 (≈ 0.334 µM)
7 | CC[C@H]1OC(=O)[C@H](C)C(=O)[C@H](C)[C@@H](O[C@H]2O[C@@H](C)C[C@@H](N(C)C)[C@@H]2O)[C@](C)(OC)C[C@@H](C)C(=O)[C@H](C)[C@@H](OC(=O)NCCn2cc(-c3cccc(F)c3)nn2)[C@]1(C)O | 4 (≈ 4.88 µM) | 256 (≈ 312 µM) | 128 (≈ 156 µM) | 128 (≈ 156 µM) | > 128 | 128 (≈ 156 µM) | 256 (≈ 312 µM) | 8 (≈ 9.76 µM)
8 | CC[C@H]1OC(=O)[C@H](C)C(=O)[C@H](C)[C@@H](O[C@H]2O[C@@H](C)C[C@@H](N(C)C)[C@@H]2O)[C@](C)(OC)C[C@@H](C)C(=O)[C@H](C)[C@@H](OC(=O)NCCn2cc(-c3cccc(Br)c3)nn2)[C@]1(C)O | 8 (≈ 9.08 µM) | > 256 | 128 (≈ 145 µM) | 128 (≈ 145 µM) | > 128 | 128 (≈ 145 µM) | 256 (≈ 291 µM) | 16 (≈ 18.2 µM)
9 | CC[C@H]1OC(=O)[C@H](C)C(=O)[C@H](C)[C@@H](O[C@H]2O[C@@H](C)C[C@@H](N(C)C)[C@@H]2O)[C@](C)(OC)C[C@@H](C)C(=O)[C@H](C)[C@@H](OC(=O)NCCn2cc(-c3ccc(Cl)cc3)nn2)[C@]1(C)O | 4 (≈ 4.78 µM) | 256 (≈ 306 µM) | 128 (≈ 153 µM) | 64 (≈ 76.5 µM) | > 128 | 128 (≈ 153 µM) | 128 (≈ 153 µM) | 8 (≈ 9.56 µM)
10 | CC[C@H]1OC(=O)[C@H](C)C(=O)[C@H](C)[C@@H](O[C@H]2O[C@@H](C)C[C@@H](N(C)C)[C@@H]2O)[C@](C)(OC)C[C@@H](C)C(=O)[C@H](C)[C@@H](OC(=O)NCCn2cc(-c3cccc(N)c3)nn2)[C@]1(C)O | 32 (≈ 39.2 µM) | > 256 | 256 (≈ 313 µM) | 256 (≈ 313 µM) | > 128 | 128 (≈ 157 µM) | > 256 | 32 (≈ 39.2 µM)
11 | CCOc1ccc(-c2cn(CCNC(=O)O[C@@H]3[C@@H](C)C(=O)[C@H](C)C[C@@](C)(OC)[C@H](O[C@H]4O[C@@H](C)C[C@@H](N(C)C)[C@@H]4O)[C@@H](C)C(=O)[C@@H](C)C(=O)O[C@H](CC)[C@@]3(C)O)nn2)cc1 | 16 (≈ 18.9 µM) | > 256 | 256 (≈ 303 µM) | 128 (≈ 151 µM) | > 128 | 128 (≈ 151 µM) | > 256 | 16 (≈ 18.9 µM)
12 | CC[C@H]1OC(=O)[C@H](C)C(=O)[C@H](C)[C@@H](O[C@H]2O[C@@H](C)C[C@@H](N(C)C)[C@@H]2O)[C@](C)(OC)C[C@@H](C)C(=O)[C@H](C)[C@@H](OC(=O)NCCn2cc(-c3ccc(C(C)(C)C)cc3)nn2)[C@]1(C)O | 8 (≈ 9.32 µM) | 256 (≈ 298 µM) | 128 (≈ 149 µM) | 64 (≈ 74.6 µM) | > 128 | 128 (≈ 149 µM) | 128 (≈ 149 µM) | 32 (≈ 37.3 µM)
13 | CCc1ccc(-c2cn(CCNC(=O)O[C@@H]3[C@@H](C)C(=O)[C@H](C)C[C@@](C)(OC)[C@H](O[C@H]4O[C@@H](C)C[C@@H](N(C)C)[C@@H]4O)[C@@H](C)C(=O)[C@@H](C)C(=O)O[C@H](CC)[C@@]3(C)O)nn2)cc1 | 4 (≈ 4.82 µM) | > 256 | 256 (≈ 308 µM) | 128 (≈ 154 µM) | > 128 | 128 (≈ 154 µM) | > 256 | 32 (≈ 38.6 µM)
14 | CC[C@H]1OC(=O)[C@H](C)C(=O)[C@H](C)[C@@H](O[C@H]2O[C@@H](C)C[C@@H](N(C)C)[C@@H]2O)[C@](C)(OC)C[C@@H](C)C(=O)[C@H](C)[C@@H](OC(=O)NCCn2cc(-c3ccc([N+](=O)[O-])cc3)nn2)[C@]1(C)O | 4 (≈ 4.72 µM) | > 256 | 256 (≈ 302 µM) | 64 (≈ 75.6 µM) | > 128 | 128 (≈ 151 µM) | 256 (≈ 302 µM) | 16 (≈ 18.9 µM)
15 | CC[C@H]1OC(=O)[C@H](C)C(=O)[C@H](C)[C@@H](O[C@H]2O[C@@H](C)C[C@@H](N(C)C)[C@@H]2O)[C@](C)(OC)C[C@@H](C)C(=O)[C@H](C)[C@@H](OC(=O)NCCn2cc(-c3ccc(C)cc3)nn2)[C@]1(C)O | 8 (≈ 9.8 µM) | > 256 | 256 (≈ 314 µM) | 256 (≈ 314 µM) | > 128 | 128 (≈ 157 µM) | > 256 | 32 (≈ 39.2 µM)
16 | CC[C@H]1OC(=O)[C@H](C)C(=O)[C@H](C)[C@@H](O[C@H]2O[C@@H](C)C[C@@H](N(C)C)[C@@H]2O)[C@](C)(OC)C[C@@H](C)C(=O)[C@H](C)[C@@H](OC(=O)NCCn2cc(-c3cccc([N+](=O)[O-])c3)nn2)[C@]1(C)O | 4 (≈ 4.72 µM) | > 256 | 128 (≈ 151 µM) | 64 (≈ 75.6 µM) | > 128 | 128 (≈ 151 µM) | 256 (≈ 302 µM) | 8 (≈ 9.45 µM)
17 | CC[C@H]1OC(=O)[C@H](C)C(=O)[C@H](C)[C@@H](O[C@H]2O[C@@H](C)C[C@@H](N(C)C)[C@@H]2O)[C@](C)(OC)C[C@@H](C)C(=O)[C@H](C)[C@@H](OC(=O)NCCn2cc(-c3ccccc3Cl)nn2)[C@]1(C)O | 4 (≈ 4.78 µM) | 256 (≈ 306 µM) | 128 (≈ 153 µM) | 64 (≈ 76.5 µM) | > 128 | 128 (≈ 153 µM) | 128 (≈ 153 µM) | 8 (≈ 9.56 µM)
